The source of these data is PMC11846289, “New tetrahydroisoquinolines bearing nitrophenyl group targeting HSP90 and RET enzymes: synthesis, characterization and biological evaluation” (BMC Chemistry, 2025).

The structures appear in SMILES notation. Values after ≈ are worked out from the molar mass of the structure shown. “Also recorded” adds a separate entry of the source. Where only a bound is given, the exact number is not on record here.

Experiment [1] has as its system MG-63 (human osteosarcoma). The experiment in a line: one spot 100 µg/ml cytotoxicity, MG-63. The class given is cell-based. The conditions noted are these: Homo sapiens, MG-63, percent inhibition, read-out: one spot concentration inhibition, MG-63.
In experiment [2] the test system is HCT116 (colon carcinoma human). The experiment in a line: one spot 100 µg/ml cytotoxicity, HCT116. The experiment is classed as cell-based. The conditions noted are these: Homo sapiens, HCT-116, percent inhibition, read-out: one spot concentration inhibition, HCT116.
Experiment [3] has as its system CACO2 (colon carcinoma human). The experiment in a line: one spot 100 µg/ml cytotoxicity, CACO2. The class given is cell-based. The conditions noted are these: Homo sapiens, Caco-2, percent inhibition, read-out: one spot concentration inhibition, CACO2.
Experiment [4] concerns A549 (human lung carcinoma). The experiment in a line: one spot 100 µg/ml cytotoxicity, A549. The class given is cell-based. The settings on record: Homo sapiens, A549, percent inhibition, read-out: one spot concentration inhibition, A549.
Experiment [5] relates to H460 (human lung carcinoma). The experiment in a line: one spot 100 µg/ml cytotoxicity, H460. The class given is cell-based. The conditions noted are these: Homo sapiens, NCI-H460, percent inhibition, read-out: one spot concentration inhibition, H460.
The test system of experiment [6] is HUH7 (human liver carcinoma). Briefly: one spot 100 µg/ml cytotoxicity, HUH7. The class given is cell-based. The conditions noted are these: Homo sapiens, Huh-7, percent inhibition, read-out: one spot concentration inhibition, HUH7.
The test system of experiment [7] is HEPG2 (human liver carcinoma). The experiment in a line: one spot 100 µg/ml cytotoxicity, HEPG2. The conditions noted are these: Homo sapiens, HepG2, percent inhibition, read-out: one spot concentration inhibition, HEPG2. The experiment is classed as cell-based.
Experiment [8] relates to MCF7 (human breast carcinoma). The experiment in a line: one spot 100 µg/ml cytotoxicity, MCF7. The class given is cell-based. The settings on record: Homo sapiens, MCF7, percent inhibition, read-out: one spot concentration inhibition, MCF7.
Experiment [9] concerns normal human skin cell line (HSF). Briefly: one spot 100 µg/ml cytotoxicity, normal skin cell line HSF. The class given is cell-based. The conditions noted are these: Homo sapiens; for cytotoxicity at 100 µg/mL: HSF, one spot 100 µg/ml, read-out: Inhibition percent of HSF cell line; for inhibition at 100 µg/mL: supplement Table S1, read-out: one spot concentration inhibition, HSF.

In a further experiment the test system is HSF. The experiment in a line: IC50 against normal cell line HSF. The settings on record: Homo sapiens; normal skin cell line HSF; read-out: IC50 FOR HSF ± S.D. The class given is cell-based, human.
The test system of a further experiment is MCF7 cell line. The experiment in a line: MTT in vitro cytotoxicity, MCF7. The class given is cell-based, human. The conditions noted are these: for Selectivity Index = IC50 of HSF/ IC50 of MCF7: HSF vs MCF7; for IC50: Homo sapiens, MTT, MCF7, read-out: IC50 for MCF7 ± S.D. The procedure:
(§1) Using the MTT test method, the in vitro cytotoxicity of our synthesized compounds at different doses ranging from […] was examined in two cell lines, HEPG2 and MCF7, to examine 50% of the cancer cells dying.
(§2) Some of the synthesized compounds were tested as anticancer activity for the IC50 against two cell lines HEPG2 and MCF7 cells according to method. All cell lines were obtained from national cancer institute, Cairo—Egypt.

The test system of the next experiment is HEPG2 cell line. Briefly: MTT in vitro cytotoxicity, HEPG2. The class given is cell-based, human. The settings on record: for Selectivity Index = IC50 of HSF/IC50 of HEPG2: HSF vs HEPG2; for IC50: Homo sapiens, MTT, HEPG2, read-out: IC50 for HEPG2 ± S.D. On the procedure:
as §1, §2

Experiment [10] relates to HEPG2 cells. The experiment in a line: Cell cycle analysis by DNA flow cytometry. The class given is cell-based, human. The text has this:
After adding compound 3, we explore the growth inhibitory cell cycle mechanism of HEPG2 cell lines using DNA flow cytometry to examine the control and advancement of the cell cycle in HEPG2 cancer cells. […] When compound 3 was applied to HEPG2 cells, the cells cycled between the G0-G1 and G2/M phases (Fig. 4, Table 3). […] Compound 3 can also stop HEPG2 cells at the G0–G1% stage of the cell cycle, with an increase in the G0–G1phase fraction from 34.54 to 40.10.
The cell cycle arrests of compound 3 against HEPG2 was carried out according to Abcam method (code ab139418), (www.abcam.co.jp).
(In general: In flow cytometry, cells or beads pass a laser one at a time.)

For experiment [11], the system named is HEPG2 cells. The experiment in a line: Annexin V-FITC/PI apoptosis assay. The experiment is classed as cell-based, human. On the procedure:
Showing a marked rise in overall apoptosis relative to the untreated control. […] HEPG2 cell death increases by 59 times following treatment with compounds 3. Therefore compound 3 has a biological mechanism that inhibits the proliferation of HEPG2 cells and has cytotoxic effects against cancer.
The Annexin-V FITC apoptosis assay of compounds 3 against HEPG2 was performed according to (BioVision Research Products (code k101-25). (www.biovision.com).

In general, IC50 refers to the concentration that gives 50% inhibition. Turning to `CSc1nc(C)c2c(c1C#N)CC(C)(O)C(C(C)=O)C2c1cccc([N+](=O)[O-])c1` (stereo not shown) [Compound 3, 7-Acetyl-4-cyano-1,6-dimethyl-6-hydroxy-3-methylthio-8-(3-nitrophenyl)−5,6,7,8-tetrahydroisoquinoline], the inhibition at 100 µg/mL stood at 44.3% in experiment [1]; 67.1% in experiment [2]; 59.2% in [3]; 50.6% in experiment [4]; 62% in experiment [5]; 32.9% in experiment [6]. Also, the figures for the inhibition at 100 µg/mL in experiment [7], in experiment [8] and in experiment [9] were 67.7%, 71.5% and 50.6%, respectively. The cytotoxicity at 100 µg/mL in [9] was determined as 52%. For the same compound, the results for the IC50 in the experiment on HSF, with MCF7 cell line and in the experiment on HEPG2 cell line were 96 µg/mL (≈ 233 µM), 33 ± 0.034 µg/mL (≈ 80.2 µM) and 75 ± 0.063 µg/mL (≈ 182 µM), respectively. In the experiment with MCF7 cell line, the “Selectivity Index = IC50 of HSF/ IC50 of MCF7” value was determined as 2.9. Moreover, in the experiment with HEPG2 cell line, the “Selectivity Index = IC50 of HSF/IC50 of HEPG2” value amounted to 1.2. Besides, in the experiment on HEPG2 cells [10] (HEPG2), the “cell cycle arrest phase” value is “G2/M phase; also recorded: G0-G1, G2/M phases”. Also, in the experiment with HEPG2 cells [10] (HEPG2, 48 h at IC50 75 µg/ml, control 12.12), the “%G2/M” value was found to be 25.67%. Besides, the “%S” value in the experiment with HEPG2 cells [10] (HEPG2, 48 h at IC50 75 µg/ml, control 23.51) worked out at 22.10%. Besides, the “%G0–G1” value with HEPG2 cells [10] (HEPG2, 48 h at IC50 75 µg/ml, control 34.54) was found to be 40.1%. For the same compound, the “Apoptosis Early” value in the experiment on HEPG2 cells [11] (HEPG2, control 0.2) came out at 13.45%. Moreover, the “Apoptosis Late” value in the experiment on HEPG2 cells [11] (HEPG2, control 0.31) is listed as 16.78%. This compound also gave a Necrosis in the experiment with HEPG2 cells [11] (HEPG2, control 1.36) of 2.96%. Further, in the experiment with HEPG2 cells [11] (HEPG2, control 1.87), the “Apoptosis Total” value is 33.19%. The “fold increase in HEPG2 cell line apoptosis” value in the experiment with HEPG2 cells [11] (relative to untreated control) is 59 fold.
In the case of `CC(=O)C1C(c2ccc([N+](=O)[O-])cc2)c2c(C)nc3sc(C(=O)Nc4cccc5ccccc45)c(N)c3c2CC1(C)O` (stereo not shown) [Compound 9b, 7-Acetyl-1-amino-N-(naphthalen-1-yl)−5,8-dimethyl-8-hydroxy-6-(4-Nitrophenyl)−6,7,8,9-tetrahydrothieno[2,3-c]isoquinoline-2-carboxamide], the inhibition at 100 µg/mL in experiment [1] amounted to 30.2%; in experiment [2], 55.6%; in [3], 51.7%; in [4] it was 45%; in experiment [5] it was 58%; in [6] it was 35.7%. In addition, the inhibition at 100 µg/mL in [7] was found to be 70%; in [8], 55.2%; in [9], 56.2%. Also, the cytotoxicity at 100 µg/mL in [9] worked out at 58%. Besides, the IC50 was determined as 86 µg/mL (≈ 148 µM) in the experiment on HSF, 80 ± 0.05 µg/mL (≈ 138 µM) in the experiment with MCF7 cell line and 87 ± 0.61 µg/mL (≈ 150 µM) in the experiment on HEPG2 cell line. Moreover, the “Selectivity Index = IC50 of HSF/ IC50 of MCF7” value in the experiment on MCF7 cell line amounted to 1.1. The “Selectivity Index = IC50 of HSF/IC50 of HEPG2” value in the experiment with HEPG2 cell line is 0.98.
For `CC(=O)C1C(c2cccc([N+](=O)[O-])c2)c2c(C)nc3sc(C(=O)Nc4nc5ccccc5s4)c(N)c3c2CC1(C)O` (stereo not shown) [Compound 10, 7-Acetyl-1-amino-N-(benzthiazol-2-yl)−5,8-dimethyl-8-hydroxy-6-(3-nitrophenyl)−6,7,8,9-tetrahydrothieno[2,3-c]isoquinoline-2-carboxamide], the inhibition at 100 µg/mL in experiment [1] came to 46.7%; in experiment [2] it was 59.2%; in experiment [3], 60.6%; in experiment [4], 47.4%; in experiment [5] it was 63.3%; in experiment [6], 21.8%. The inhibition at 100 µg/mL came to 55.2% in [7], 75.4% in experiment [8] and 54.7% in experiment [9]. Moreover, the cytotoxicity at 100 µg/mL in experiment [9] came out at 56%. Further, the IC50 is 89 µg/mL (≈ 151 µM) with HSF, over 100 µg/mL in the experiment on MCF7 cell line and over 100 µg/mL in the experiment on HEPG2 cell line.
For `COc1cccc2c1C(=O)c1c(O)c3c(c(O)c1C2=O)C[C@@](O)(C(=O)CO)C[C@@H]3O[C@H]1C[C@H](N)[C@H](O)[C@H](C)O1` [Doxorubicin, reference compound], the inhibition at 100 µg/mL was determined as 63.8% in [1]; 70.9% in [2]; 74.8% in experiment [3]; 32% in [4]; 72.9% in [5]; 52.8% in [6]. Moreover, the inhibition at 100 µg/mL in [7] was found to be 58.9%; in experiment [8], 74%; in experiment [9] it was 58.9%. Moreover, in experiment [9], the cytotoxicity at 100 µg/mL came out at 60%. The IC50 with HSF was determined as 83 µg/mL (≈ 153 µM); with MCF7 cell line, 4.58 ± 0.081 µg/mL (≈ 8.43 µM); in the experiment on HEPG2 cell line, 4.13 ± 0.054 µg/mL (≈ 7.6 µM). Further, the “Selectivity Index = IC50 of HSF/ IC50 of MCF7” value in the experiment with MCF7 cell line is 18.1. Also, the “Selectivity Index = IC50 of HSF/IC50 of HEPG2” value in the experiment with HEPG2 cell line came out at 20.1.
